Laboratory results published in patent US7645740B2, “Peptide sequence found in Laminin 5 for treating skin impairments” (Laboratoires d'Anjou Centre National de la Recherche …, priority 2004, dated 2010).

System: HT1080 cells (human fibrosarcoma)
Assay: Cell adhesion test to immobilized peptides, HT1080
Format: cell-based
Procedure: Dose-dependent cell adhesion of cell line HT1080 to various peptides 1, 2 and 3. The peptides were immobilized in 96-well plates at the concentrations given on the abscissa. 8×10^4 cells were deposited in each well and plates were incubated at 37° C. for 1 hour. After washing, attached cells were fixed and cell adhesion was measured as described in the methodology section.
Dose-dependent cell adhesion of HT1080 cells to various peptide TALRIRATYGEY (SEQ ID NO. 1). The peptides were immobilized in 96-well plates in the quantities given on the abscissa. 8×10^4 cells and 15×10^4 cells were deposited in each well and plates were incubated at 37° C. for 1 hour. After washing, attached cells were fixed and cell adhesion was measured as described in the methodology section. Cells were observed by phase contrast microscopy then photographed. Bar =50 μm
Peptides 1, 2 and 3 were used for the cell adhesion experiments. A range of 7 decreasing concentrations (100 micrograms/ml, 50 micrograms/ml, 25 micrograms/ml, 12.5 micrograms/ml, 6.25 micrograms/ml, 3.125 micrograms/ml and 1.562 micrograms/ml) was made up by successive dilution in PBS (Phosphate Buffer Saline, KH2PO4 1.54 mM; Na2HPO4 1.42 mM; NaCl-131 mM) using a starting solution at a concentration of 1 mg/ml. These solutions were immediately distributed onto a 96-well culture plate (Greinher, Dutscher, Brumath, France) at a rate of 100 μl per well. Plates were then placed at +4° C. for 16 to 18 hours. The solutions were then removed by turning the plates and each well was saturated with a 1% PBS-BSA solution (bovine serum albumin). Three additional wells without the substrate underwent the same treatment and were used as blanks.
Epithelial cells were detached from the culture dishes using a trypsin/EDAT solution (0.05-0.02%) then suspended in DMEM medium without additives for the cell lines and in KBM-2 without additive for human keratinocytes. The number of seeded cells per well is given in the graphs (50,000 to 100,000 cells per well).
After cell seeding, the multi-well plates were placed in an incubator at 37° C. under 5% CO2. After incubation for 30 to 60 minutes, cells were observed under a phase contrast microscope in order to verify that the test was conducted correctly. The adhesion medium was then removed and each well was washed in a sterile PBS solution to remove non-adhering cells. The remaining cells, attached to the substrate, were then fixed using a solution of 1% glutaraldehyde in PBS for 15 minutes. The glutaraldehyde solution as removed and the cells were stained with a crystal violet solution diluted to 1% in distilled water for 30 minutes.
After rinsing in water several times, cells were permeabilized by means of a 0.02% triton solution for 15 minutes in order to solubilize the crystal violet. Absorbances were read at 570 nm using an ELISA plate reader (MR500, Dynatech, Guernsey, Channel Islands). Each experimental point was carried out in triplicate. The blank value represented the mean absorbance of 3 control wells (BSA). […] We then calculated the mean for the three absorbance values for each of the triplicate samples.
The results are presented in the form of a graph with the absorbance values on the ordinate and the various substrate concentrations on the abscissa. […]
A second approach was taken in order to determine the minimum quantity of active peptide and the number of adhering cells was increased in order to obtain a confluent cell network. […]

TALRIRATYGEY (Human laminin 5) [Peptide 1]
cell adhesion to immobilized peptide (HT1080, 0 to 10 micrograms immobilized peptide, 8×10^4 cells per well, 1 hour 37° C., absorbance 570 nm): led to cell adhesion
immobilized peptide quantity at which adhesion occurred (HT1080, FIG. 3): 0.15 micrograms
immobilized peptide quantity at which maximum adhesion was achieved (HT1080, FIG. 3): 0.15 micrograms
